From patent US10730826B2, “Ketone inhibitors of lysine gingipain” (CORTEXYME, INC., priority 2016, dated 2020)

What was measured:
Cathepsin H = Cathepsin H (Homo sapiens (Human), UniProt P09668); assay: Cathepsin H inhibition assay; type: biochemical; settings: Table 4; read-out: IC50 (nM) CatH
Experimental: The capacities of compounds of the present invention to inhibit the activity of cathepsins B, H, K, L, and S were measured in similar assays. Boc-Leu-Arg-Arg-AMC (20 μM) in sodium acetate buffer (50 mM, pH 5.5) containing DTT (1 mM) and EDTA (2 mM) was used for the Cathepsin B assay. L-Arg-AMC (20 μM) in sodium acetate buffer (50 mM, pH 5.5) containing DTT (1 mM) and EDTA (2 mM) was used for the Cathepsin H assay. Z-Phe-Arg-AMC (10 μM) in HEPES buffer (50 mM, pH 7.4) containing DTT (2.5 mM) and EDTA (1 mM) was used for the Cathepsin K assay. Z-Phe-Arg-AMC (20 μM) in sodium acetate buffer (50 mM, pH 5.5) containing DTT (1 mM) and EDTA (2 mM) was used for the Cathepsin L assay. Z-Leu-Arg-AMC (10 μM) in sodium acetate buffer (25 mM, pH 4.5) containing DTT (2.5 mM) and NaCl (50 mM) was used for the Cathepsin S assay. The capacities of the compounds to inhibit the activity of cathepsins F, V, and Z were also measured.
Further assays to measure the inhibitory activity of compounds of the present invention against Kgp and cathepsins B, H, K, L, and S were conducted as described in Example 66. The capacities of the compounds to inhibit the activity of cathepsins F, V, and Z were also measured.

Kgp = Kgp (Porphyromonas gingivalis (Bacteroides gingivalis), UniProt Q51817); assay: Cy5 activity-based probe detection of Kgp in P. gingivalis lysate; type: binding; settings: 100 nM, FIG. 9C
Experimental: It has a warhead that binds to the Kgp active site, a peptide-based core, and a Cy5 fluorophore for detection. Labeled target proteins can be visualized by biochemical separation of a sample with fractionation by 2-D gel electrophoresis and detection of fluorescent signals from Cy5 at the appropriate excitation and emission wavelength. Incubation of a fixed concentration of the probe following binding of Kgp to a test compound (e.g., a candidate Kgp inhibitor) results in binding of the activity probe to Kgp active sites not already bound by the test compound.
10^8 bacteria were collected and centrifuged at 5000 g for 10 min at 4° C., and the supernatant was discarded. The bacterial cell pellet was lysed with 1 mL of B-Per lysis buffer (Thermo Fischer) on ice for 10 min, then centrifuged for 10 min at 14000 g, 4° C. Supernatant-containing protein lysate was collected. Biological samples were lysed with B-Per lysis buffer for 10 min at 4° C.
Biological samples, P. gingivalis lysate or purified Kgp were incubated with quenchable Cy5 probe compound 71 (1 μM) for 1 h at 37° C. with shaking. Then, samples were denatured with NUPAGE LDS sample buffer (Thermo Fisher) containing 50 mM DTT at 95° C. for 10 min and subjected to SDS-PAGE electrophoresis using a Criterion 4-15% precast gel (Bio-Rad) and Tris/Glycine/SDS running buffer (Bio-Rad). The gel was run at 75V for 10 min and then 125V for 1.5 h. The gel was then removed from the plastic cassette and subjected to Cy5 visualization with a ChemiDoc imaging system (Bio-Rad).
Samples were labeled with quenchable Cy5 probe compound 71 (1 μM) for 1 h at 37° C. with shaking. For immunoprecipitation of Cy5 labeled Kgp, the samples were then incubated with 10 μg of rabbit polyclonal CAB102 antibody with rotation overnight at 4° C. Then, samples were incubated with prewashed Dynabead Protein G beads with rotation for 20 min at room temperature. The samples were washed 4 times with 200 μL of washing buffer, using a magnetic rack. […]

Sequence of Kgp (Q51817 229-737 limits assumed): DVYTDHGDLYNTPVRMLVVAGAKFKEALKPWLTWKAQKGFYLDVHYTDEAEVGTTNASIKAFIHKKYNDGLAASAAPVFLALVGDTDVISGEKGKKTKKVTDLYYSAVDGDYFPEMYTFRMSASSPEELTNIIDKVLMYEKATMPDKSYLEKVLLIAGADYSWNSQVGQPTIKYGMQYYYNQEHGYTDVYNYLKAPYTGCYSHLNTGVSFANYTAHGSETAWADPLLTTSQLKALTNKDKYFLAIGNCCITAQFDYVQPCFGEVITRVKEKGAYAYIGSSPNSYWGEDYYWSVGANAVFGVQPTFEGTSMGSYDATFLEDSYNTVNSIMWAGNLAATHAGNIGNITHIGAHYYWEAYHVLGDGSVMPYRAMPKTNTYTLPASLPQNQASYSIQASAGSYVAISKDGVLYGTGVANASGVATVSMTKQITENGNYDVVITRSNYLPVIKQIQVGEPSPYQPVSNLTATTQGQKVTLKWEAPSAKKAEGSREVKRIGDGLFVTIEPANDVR
Sequence of Cathepsin H (P09668 98-335, species assumed): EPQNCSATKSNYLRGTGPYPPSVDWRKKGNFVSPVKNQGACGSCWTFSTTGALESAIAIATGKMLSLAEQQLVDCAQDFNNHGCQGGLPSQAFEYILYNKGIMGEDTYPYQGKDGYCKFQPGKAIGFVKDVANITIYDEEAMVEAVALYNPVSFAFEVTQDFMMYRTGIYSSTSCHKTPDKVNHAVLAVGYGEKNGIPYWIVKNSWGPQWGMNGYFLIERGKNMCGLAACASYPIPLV

For `NCCCC[C@H](NC(=O)C1CCCC1)C(=O)COc1c(F)ccc(F)c1F` [Compound 1, (S)—N-(7-amino-2-oxo-1-(2,3,6-trifluorophenoxy)heptan-3-yl)cyclopentanecarboxamide], the IC50 (Cathepsin H) was 560 nM and the “competition with probe compound 71 for Kgp active site” value (Kgp) was “competes for active site binding”.
